US6881741B2 (ViroChem Pharma Inc., priority 2001, dated 2005)
Where two headings read alike, the source gives them in different places.

How the values were obtained:
[1] = biological target: recombinant HCV NS5B (HCV RNA-dependent RNA polymerase) (Hepatitis C virus genotype 1b, UniProt P26663); experiment: biochemical
[2] = biological target: T1, HCV NS3 enzyme (ATPase activity of HCV NS3 helicase) (Hepatitis C virus genotype 1b, UniProt P26663); experiment: ATPase activity of HCV NS3 helicase, Malachite Green Assay; format: biochemical; conditions: free inorganic phosphate release, 30 min at 37 C, 200 μM ATP, 3 nM enzyme, read-out: Anti-ATPase (Malachite Green assay) EC50
T1 sequence (P26663 1027-1657 limits assumed): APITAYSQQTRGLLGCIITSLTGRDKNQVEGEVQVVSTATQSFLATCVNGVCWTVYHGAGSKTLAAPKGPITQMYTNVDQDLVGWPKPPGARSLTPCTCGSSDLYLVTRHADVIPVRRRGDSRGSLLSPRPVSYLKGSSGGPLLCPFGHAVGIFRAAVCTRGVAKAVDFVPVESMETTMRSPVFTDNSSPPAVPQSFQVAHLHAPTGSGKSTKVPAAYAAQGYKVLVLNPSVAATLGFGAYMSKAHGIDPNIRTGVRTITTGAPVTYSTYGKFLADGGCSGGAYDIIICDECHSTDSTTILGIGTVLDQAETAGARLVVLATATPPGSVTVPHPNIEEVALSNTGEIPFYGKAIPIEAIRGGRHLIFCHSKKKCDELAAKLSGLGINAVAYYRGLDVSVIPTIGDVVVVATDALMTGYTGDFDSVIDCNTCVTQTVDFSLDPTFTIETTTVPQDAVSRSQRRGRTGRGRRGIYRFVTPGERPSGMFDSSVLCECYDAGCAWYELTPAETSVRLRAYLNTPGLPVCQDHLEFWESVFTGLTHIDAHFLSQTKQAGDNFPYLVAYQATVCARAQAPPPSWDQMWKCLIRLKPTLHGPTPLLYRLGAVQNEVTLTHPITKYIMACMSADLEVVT
Experimental: (§1) Evaluation of Analogues for measurement of ATPase activity of HCV NS3 helicase
The measurement of ATPase activity was performed by measuring the amount of free inorganic phosphate released during the conversion of ATP to ADP by the HCV NS3 ATPase activity. The assay is as follows: In a 96-well microtiter-plate, compounds were dissolved at various concentrations in a final volume of 25 μl of ATPase buffer containing 400 μM ATP. The enzymatic reaction was initiated by the addition of 25 μl of ATPase buffer containing 6 nM of HCV NS3 enzyme without ATP to the wells followed by an incubation of 30 min. at 37 C. Essentially, the final concentration of the ATPase buffer components are as follows: 44 mM MOPS pH 7.0, 8.8 mM NaCl, 2.2 mM MgCl2, 125 μg/ml poly A, 1% DMSO, 200 μM ATP, and 3 nM HCV NS3 enzyme. The reaction was stopped by the addition of 100 μl of Biomol Green™ reagent (BIOMOL® Research Laboratories Inc., Plymouth Meeting, Pa.). In order to allow the development of the green color, the plate was incubated for 15 min. at room temperature. Then the plate was read on a micro-plate reader at 620 nm. […] The signal recorded was also corrected from the background signal obtained with control samples with compound only. The IC50 was determined from dose-response curves using six to eight concentrations per compound. […]

[3] = biological target: T1, HCV NS3 enzyme (ATPase activity of HCV NS3 helicase); experiment: ATPase activity of HCV NS3 helicase, HPLC Assay; format: biochemical; conditions: ADP produced measured by paired-ion HPLC, 1 nM enzyme, read-out: Anti-ATPase (HPLC method) EC50
Experimental: as §1
The measurement of HCV NS3 ATPase activity was performed by measuring the amount of ADP produced during the conversion of ATP to ADP by the HCV NS3 enzyme using paired-ion HPLC on a reverse phase column. […]. The mobile phase was an isocratic solution of 0.15 M triethylamine, 6% methanol, and phosphoric acid to pH 5.5. ADP and ATP peaks were resolved using the Aqua 5μ, C18, 125 Å, (150×4.6 mm) reverse phase column. The extent of ATP conversion to ADP was evaluated by measuring the area under the ADP peak produced which was detected at 259 nm. The amount of ADP was corrected for the presence of ADP contaminant in the original ATP solution. […] The IC50 was determined from dose-response curves using six to eight concentrations per compound. Curves were fitted to data points using a non-linear regression analysis, and IC50s were interpolated from the resulting curves using GraphPad Prism software, version 2.0 (GraphPad Software Inc, San Diego, Calif.).

[4] = HCV polymerase activity, list of compounds of Example 27, read-out: IC50 (polymerase activity)
[5] = related polymerase activity (Example 27 list), read-out: IC50

recombinant HCV NS5B (HCV RNA-dependent RNA polymerase), sequence (P26663 2420-3010 limits assumed): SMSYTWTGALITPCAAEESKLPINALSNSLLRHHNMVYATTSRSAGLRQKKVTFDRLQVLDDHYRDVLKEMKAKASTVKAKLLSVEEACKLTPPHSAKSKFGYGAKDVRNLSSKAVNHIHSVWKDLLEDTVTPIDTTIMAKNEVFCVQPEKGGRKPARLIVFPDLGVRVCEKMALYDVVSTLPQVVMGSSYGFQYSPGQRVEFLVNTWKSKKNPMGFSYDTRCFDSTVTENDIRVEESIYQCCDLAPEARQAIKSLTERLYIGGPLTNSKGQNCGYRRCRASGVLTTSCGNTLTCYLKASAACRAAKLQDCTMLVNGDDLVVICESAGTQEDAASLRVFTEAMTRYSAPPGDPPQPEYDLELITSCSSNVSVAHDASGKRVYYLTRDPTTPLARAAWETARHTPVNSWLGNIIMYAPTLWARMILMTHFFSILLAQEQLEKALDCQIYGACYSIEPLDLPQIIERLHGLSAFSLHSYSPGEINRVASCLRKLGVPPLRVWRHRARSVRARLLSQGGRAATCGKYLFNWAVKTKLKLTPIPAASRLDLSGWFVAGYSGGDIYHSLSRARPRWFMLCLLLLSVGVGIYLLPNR

Row | Structure (SMILES) | IC50 [1, 4] [µM] | further results
1 | CC1CCC(C(=O)N(c2cc(-c3ccc(F)cc3)sc2C(=O)O)C(C)C)CC1 (centres unmarked) [Compound 559, 5-(4-FLUORO-PHENYL)-3-[ISOPROPYL-(4- METHYL-CYCLOHEXANECARBONYL)- AMINO]-THIOPHENE-2-CARBOXYLIC ACID] | < 5 | 
2 | CC(C)N(C(=O)[C@H]1CC[C@H](C)C[C@H]1O)c1cc(-c2ccc(F)cc2)sc1C(=O)O [Compound 560] | < 5 | 
3 | COCC(C)N(C(=O)c1ccc(Cl)cc1Cl)c1cc(-c2ccccc2)sc1C(=O)O (centres unmarked) [Compound 561, 3-[(2,4-DICHLORO-BENZOYL)-(2- METHOXY-1-METHYL-ETHYL)-AMINO]-5- PHENYL-THIOPHENE-2-CARBOXYLIC ACID] | < 5 | 
4 | CC(C)N(C(=O)C1=CC[C@@H](C)CC1)c1cc(-c2ccccc2)sc1C(=O)O [Compound 562, 3-[(4S)-ISOPROPYL-(4-METHYL- CYCLOHEX-1-ENECARBONYL)-AMINO]-5- PHENYL-THIOPHENE-2-CARBOXYLIC ACID] | < 5 | 
5 | Cc1ccc(S(=O)(=O)Nc2cc(-c3ccc(Cl)cc3)sc2C(N)=O)cc1 [Compound 563, 5-(4-CHLORO-PHENYL)-3-(TOLUENE-4- SULFONYLAMINO)-THIOPHENE-2- CARBOXYLIC ACID AMIDE] | 5 to 20 | 
6 | Cc1ccc(S(=O)(=O)Nc2cc(-c3ccc(F)cc3)sc2C(N)=O)cc1 [Compound 564, 5-(4-FLUORO-PHENYL)-3-(TOLUENE-4- SULFONYLAMINO)-THIOPHENE-2- CARBOXYLIC ACID AMIDE] | 5 to 20 | 
7 | COc1ccc(-c2cc(NS(=O)(=O)c3ccc(C)cc3)c(C(N)=O)s2)cc1 [Compound 565, 5-(4-METHOXY-PHENYL)-3-(TOLUENE-4- SULFONYLAMINO)-THIOPHENE-2- CARBOXYLIC ACID AMIDE] | 5 to 20 | 
8 | Cc1ccc(S(=O)(=O)Nc2cc(-c3ccccc3)sc2C(=O)NC2CCC2)cc1 [Compound 567, 5-PHENYL-3-(TOLUENE-4- SULFONYLAMINO)-THIOPHENE-2- CARBOXYLIC ACID CYCLOBUTYLAMIDE] | 5 to 20 | 
9 | Cc1ccc(S(=O)(=O)Nc2cc(-c3ccccc3)sc2C(N)=O)c(C)c1 [Compound 568, 3-(2,4-DIMETHYL- BENZENESULFONYLAMINO)-5-PHENYL- THIOPHENE-2-CARBOXYLIC ACID AMIDE] | 5 to 20 | 
10 | CC1CCC(C(=O)N(c2cc(-c3ccc(Cl)cc3)sc2C(=O)O)C(C)C)CC1 (centres unmarked) [Compound 570, 5-(4-CHLORO-PHENYL)-3-[ISOPROPYL-(4- METHYL-CYCLOHEXANECARBONYL)- AMINO]-THIOPHENE-2-CARBOXYLIC ACID] | < 5 | 
11 | CC(C)N(c1cc(-c2ccc(-c3ccc(Cl)cc3)cc2)sc1C(=O)O)C(=O)[C@H]1CC[C@H](C)CC1 [Compound 571, 5-(4′-CHLORO-BIPHENYL-4-YL)-3- [ISOPROPYL-(4-METHYL- CYCLOHEXANECARBONYL)-AMINO]- THIOPHENE-2-CARBOXYLIC ACID] | < 5 | 
12 | CC1CCC(C(=O)N(c2cc(-c3ccccc3)sc2C(=O)O)C2CCOCC2)CC1 (centres unmarked) [Compound 572, 3-[(4-METHYL- CYCLOHEXANECARBONYL)- (TETRAHYDRO-PYRAN-4-YL)-AMINO]-5- PHENYL-THIOPHENE-2-CARBOXYLIC ACID] | < 5 | 
13 | CC1CCC(C(=O)N(c2cc(-c3ccc(C(F)(F)F)cc3)sc2C(=O)O)C(C)C)CC1 (centres unmarked) [Compound 575, 3-[ISOPROPYL-(4-METHYL- CYCLOHEXANECARBONYL)-AMINO]-5-(4- TRIFLUOROMETHYL-PHENYL)- THIOPHENE-2-CARBOXYLIC ACID] | < 5 | 
14 | CC1CCC(C(=O)N(c2cc(-c3ccc(C#N)cc3)sc2C(=O)O)C(C)C)CC1 (centres unmarked) [Compound 576, 5-(4-CYANO-PHENYL-3-[ISOPROPYL-(4- METHYL-CYCLOHEXANECARBONYL)- AMINO]-THIOPHENE-2-CARBOXYLIC ACID] | < 5 | 
15 | COc1ccc(-c2cc(N(C(=O)C3CCC(C)CC3)C(C)C)c(C(=O)O)s2)cc1 (centres unmarked) [Compound 577, 3-[ISOPROPYL-(4-METHYL- CYCLOHEXANECARBONYL)-AMINO]-5-(4- METHOXY-PHENYL)-THIOPHENE-2- CARBOXYLIC ACID] | < 5 | 
16 | COCC(C)N(C(=O)C1CCC(C)CC1)c1cc(-c2ccccc2)sc1C(=O)O (centres unmarked) [Compound 578, 3-[(2-METHOXY-1-METHYL-ETHYL)-(4- METHYL-CYCLOHEXANECARBONYL)- AMINO]-5-PHENYL-THIOPHENE-2- CARBOXYLIC ACID] | < 5 | 
17 | CC1CCC(C(=O)N(c2cc(-c3ccccc3)sc2C(=O)O)C2CCCCC2)CC1 (centres unmarked) [Compound 579, 3-[CYCLOHEXYL-(4-METHYL- CYCLOHEXANECARBONYL)-AMINO]-5- PHENYL-THIOPHENE-2-CARBOXYLIC ACID] | < 5 | 
18 | Cc1cc(S(=O)(=O)Nc2cc(-c3ccccc3)sc2C(N)=O)c(C)cc1Cl [Compound 580, 3-(4-CHLORO-2,5 DIMETHYL- BENZENESULFONYLAMINO)-5-PHENYL- THIOPHENE-2-CARBOXYLIC ACID AMIDE] | < 5 | 
19 | CC(C)N(C(=O)c1cc(-c2ccccc2)sc1C(=O)O)c1ccc(Cl)cc1Cl [Compound 583, 3-[(2,4-DICHLORO-PHENYL)-ISOPROPYL- CARBAMOYL]-5-PHENYL-THIOPHENE-2- CARBOXYLIC ACID] | < 5 | 
20 | Cc1ccc(N(C)C(=O)c2cc(-c3ccccc3)sc2C(=O)O)cc1 [Compound 584, 3-(METHYL-P-TOLYL-CARBAMOYL)-5- PHENYL-THIOPHENE-2-CARBOXYLIC ACID] | 5 to 20 | 
21 | CN(C(=O)c1cc(-c2ccccc2)sc1C(=O)O)c1ccc(Cl)cc1Cl [Compound 585, 3-[(2,4-DICHLORO-PHENYL)-METHYL- CARBAMOYL]-5-PHENYL-THIOPHENE-2- CARBOXYLIC ACID] | 5 to 20 | 
22 | Cc1cc(S(=O)(=O)Nc2cc(-c3ccc(Cl)cc3)sc2C(=O)O)c(C)cc1Cl [Compound #14, 3-(4-Chloro-2,5-dimethyl-benzenesulfonylamino)-5-(4-chloro-phenyl)-thiophene-2-carboxylic acid] |  | EC50 [2]: > 20 µM; IC50 [1, 5]: < 5 µM
23 | CC(C)Cc1ccc(-c2cc(NS(=O)(=O)c3ccc(Br)cc3F)c(C(=O)O)s2)cc1 [Compound #223, 3-(4-Bromo-2-fluorobenzenesulfonyl-amino)-5-(4-isobutylphenyl)-thiophene-2-carboxylic acid] |  | EC50 [3]: < 5 µM; IC50 [1, 5]: 5 to 20 µM
24 | Cc1cc(Br)ccc1S(=O)(=O)Nc1cc(-c2ccc(CC(C)C)cc2)sc1C(=O)O [Compound #224, 3-(4-Bromo-2-methylbenzenesulfonyl-amino)-5-(4-isobutylphenyl)-thiophene-2-carboxylic acid] |  | EC50 [3]: 5 to 20 µM; IC50 [1, 5]: > 20 µM
25 | COc1cccc(S(=O)(=O)Nc2cc(-c3ccc(CC(C)C)cc3)sc2C(=O)O)c1 [Compound #225] |  | EC50 [3]: > 20 µM; IC50 [1, 5]: > 20 µM
26 | CC(C)Cc1ccc(-c2cc(NS(=O)(=O)c3cc(OCC(F)(F)F)ccc3OCC(F)(F)F)c(C(=O)O)s2)cc1 [Compound #227, 3-[2,5-Bis-(2,2,2-trifluoroethoxy)-benzenesulfonylamino]-5-(4-isobutyl-phenyl)-thiophene-2-carboxylic acid] |  | EC50 [3]: > 20 µM; IC50 [1, 5]: > 20 µM
27 | CC(C)Cc1ccc(-c2cc(NS(=O)(=O)c3ccc(C#N)cc3Cl)c(C(=O)O)s2)cc1 [Compound #228, 3-(2-Chloro-4-cyanobenzenesulfonyl-amino)-5-(4-isobutylphenyl)-thiophene-2-carboxylic acid] |  | EC50 [3]: > 20 µM; IC50 [1, 5]: > 20 µM
28 | CC(C)Cc1ccc(-c2cc(NS(=O)(=O)c3ccc(-c4cc(C(F)(F)F)on4)s3)c(C(=O)O)s2)cc1 [Compound #581, 5-(4-Isobutyl-phenyl)-3-[5-(5-trifluoromethyl-isoxazol-3-yl)-thiophene-2-sulfonylamino]-thiophene-2-carboxylic acid] |  | EC50 [3]: 5 to 20 µM
29 | CC(C)Cc1ccc(-c2cc(NS(=O)(=O)c3ccc(F)c(F)c3F)c(C(=O)O)s2)cc1 [Compound #582, 5-(4-Isobutyl-phenyl)-3-(2,3,4-trifluoro-benzenesulfonylamino)-thiophene-2-carboxylic acid] |  | EC50 [3]: > 20 µM
